The values below come from patent US4477664A, “Novel 1-(4-piperidiniobenzyl)-2,3-dioxopiperazine derivatives or acid addition salts thereof” (Toyama Chemical Co., Ltd., priority 1979, dated 1984).

The structures appear in SMILES notation. Values after ≈ are worked out from the molar mass of the structure shown.

One series concerns HeLa S3 cells. Kind of series: MIC value against HeLa S3 cells (microplate method). Type of series: cell-based. As to conditions: Homo sapiens, 96 h, 2×10^4 cells/ml, 4 days, Giemsa staining. The source says:
(§1) a. MIC value against HeLa S3 cells and Ehrlich cells (microplate method) Number of cells: 2×10^4 cells/ml Culture medium: Eagle's MEM+20% calf embryonic serum Culture time: 4 days Judgement: Giemsa staining

A further series deals with Ehrlich cells. Description: MIC value against Ehrlich cells (microplate method). Type of series: cell-based. The settings on record: 96 h, 2×10^4 cells/ml, 4 days, Giemsa staining.
Source text: as §1

A further series is described as follows: Acute toxicity. The settings on record: mouse, in vivo, ip; intraperitoneal, once, male mice, observed for 7 days. The source says:
The test drugs were used in the form of a solution or suspension in a saline solution or a 0.3% carboxymethyl cellulose-containing saline solution.

The subject of series [1] is Ehrlich ascites carcinoma cells. Description: Effect on Ehrlich carcinoma (i): intraperitoneal inoculation, mean survival days. Type of series: in vivo, ICR-strain mice. As to conditions: Mus musculus, ip, 168 h, once a day for 7 days, read-out: T/C (mean survival days). As to the method:
(i) Ehrlich ascites carcinoma cells (1×10^6 cells/head) were inoculated intraperitoneally into ICR-strain mice (female, 6 to 7 weeks old, each group consisting of 5 or 4 mice), and after 24 hours, the […] The effect thereof was judged from the mean survival days.
The test drugs were used in the form of a solution or suspension in a saline solution or a 0.3% carboxymethyl cellulose-containing saline solution. [formula]

Regarding `Nc1cnc(Nc2ccc(CN3CCN(Cc4ccccc4)C(=O)C3=O)cc2)nc1` [Compound 45], the minimum inhibitory concentration (MIC) in the series on HeLa S3 cells and in the series on Ehrlich cells was 0.05 µg/mL (≈ 0.124 µM) in each case.
As to `O=C1C(=O)N(Cc2cnccn2)CCN1Cc1ccc(Nc2ncccn2)cc1` [Compound 9], the values for the MIC in the series on HeLa S3 cells and with Ehrlich cells were 1.56 to 3.13 µg/mL (≈ 4.01 to 8.04 µM) and 6.25 µg/mL (≈ 16 µM), respectively.
On to `CCCCCCN1CCN(Cc2ccc(Nc3ccncn3)cc2)C(=O)C1=O` [Compound 19], for which the MIC with HeLa S3 cells and with Ehrlich cells was 1.56 µg/mL (≈ 4.09 µM) throughout. Further, in “Acute toxicity”, the LD50 (usually the dose expected to kill half of the subjects tested) at 168 h is greater than 500 mg/kg.
With `CCCCCCN1CCN(Cc2ccc(Nc3ccncc3)cc2)C(=O)C1=O` [Compound 5], the MIC against HeLa S3 cells and with Ehrlich cells was 3.13 µg/mL (≈ 8.23 µM) throughout.
Take `COC(=O)c1ccc(CN2CCN(Cc3ccc(Nc4ncccn4)cc3)C(=O)C2=O)cc1` [Compound 17]: the MIC against HeLa S3 cells and against Ehrlich cells was 6.25 µg/mL (≈ 14 µM) in each case.
On to `CCCCCCN1CCN(Cc2ccc(NCC)cc2)C(=O)C1=O` [Compound 32], for which the MIC against HeLa S3 cells and against Ehrlich cells was 6.25 µg/mL (≈ 18.9 µM) each time.
For `O=C1C(=O)N(Cc2ccc(Nc3ccccn3)cc2)CCN1Cc1ccccc1` [Compound 2], the MIC against HeLa S3 cells and against Ehrlich cells was 0.39 to 0.78 µg/mL (≈ 1.01 to 2.02 µM) each time. In addition, the LD50 at 168 h in “Acute toxicity” is greater than 200 mg/kg. Besides, in series [1], the response vs control in vivo at 100 mg/kg is greater than 192%.
`CCN(CC)c1ccc(CNCCN2CCN(Cc3ccc(N(CC)CC)cc3)C(=O)C2=O)cc1` [Compound 40]: the MIC against HeLa S3 cells and in the series with Ehrlich cells was 12.5 µg/mL (≈ 26.1 µM) throughout. Further, the response vs control in vivo at 30 mg/kg in series [1] (30 mg/kg) was found to be 154%.
As for `CCCCCCN1CCN(Cc2ccc(N3CCCCC3)cc2)C(=O)C1=O` [Compound 31], the MIC with HeLa S3 cells and against Ehrlich cells was 3.13 µg/mL (≈ 8.42 µM) each time.
`CC(c1ccc(Nc2ncccn2)cc1)N1CCN(Cc2ccccc2)C(=O)C1=O` (stereo not drawn) [Compound 22]: the MIC (as a rule, the lowest concentration found to suppress growth) is 3.13 to 6.25 µg/mL (≈ 7.8 to 15.6 µM) against HeLa S3 cells and 6.25 µg/mL (≈ 15.6 µM) against Ehrlich cells.
On to `Cc1ccc(Nc2ccc(CN3CCN(Cc4ccccc4)C(=O)C3=O)cc2)nc1` [Compound 25], for which the MIC against HeLa S3 cells and against Ehrlich cells was 0.39 µg/mL (≈ 0.974 µM) each time.
As for `O=C1C(=O)N(c2ccccc2)CCN1Cc1ccc(Nc2ncccn2)cc1` [Compound 12], the MIC against HeLa S3 cells and against Ehrlich cells was 0.78 µg/mL (≈ 2.09 µM) throughout. The same molecule came in with an LD50 at 168 h in “Acute toxicity” greater than 500 mg/kg.
For `CCCCCCN1CCN(Cc2ccc(NC(=O)CCl)cc2)C(=O)C1=O` [Compound 34], the MIC in the series with HeLa S3 cells and in the series with Ehrlich cells was 0.39 µg/mL (≈ 1.03 µM) in each case. For the same molecule, the response vs control in vivo at 100 mg/kg in series [1] is greater than 142%. The response vs control in vivo at 200 mg/kg in series [1] (200 mg/kg) came to 157%.
For the molecule `CCCCCCN1CCN(Cc2ccc(N(CC)CC)c(Cl)c2)C(=O)C1=O` [Compound 28], the MIC with HeLa S3 cells came out at 12.5 µg/mL (≈ 31.7 µM). In series [1], the response vs control in vivo at 40 mg/kg is greater than 173% and the response vs control in vivo at 100 mg/kg worked out at 165%. Moreover, the MIC in the series with Ehrlich cells was 12.5 µg/mL (≈ 31.7 µM).
`O=C1C(=O)N(Cc2ccc(Nc3ncccn3)cc2)CCN1CCc1ccccc1` [Compound 14]: the MIC in the series with HeLa S3 cells and in the series with Ehrlich cells was 0.39 µg/mL (≈ 0.971 µM) in each case. Moreover, the LD50 at 168 h in “Acute toxicity” is greater than 500 mg/kg. Further, the response vs control in vivo at 100 mg/kg in series [1] is greater than 179%.
Take `O=C1C(=O)N(CC2CCCCC2)CCN1Cc1ccc(Nc2ncccn2)cc1` [Compound 11]: the MIC in the series with HeLa S3 cells and with Ehrlich cells was 1.56 µg/mL (≈ 3.96 µM) throughout.
`CCN(CC)c1ccc(CN2CCN(Cc3ccccn3)C(=O)C2=O)cc1` [Compound 38]: the MIC against HeLa S3 cells and in the series with Ehrlich cells was 25 µg/mL (≈ 68.2 µM) throughout. For the same molecule, the response vs control in vivo at 100 mg/kg in series [1] was found to be 160%.
Take `CC(c1ccccc1)N1CCN(Cc2ccc(Nc3ncccn3)cc2)C(=O)C1=O` (stereo not drawn) [Compound 18]: the results for the MIC against HeLa S3 cells and with Ehrlich cells were 3.13 µg/mL (≈ 7.8 µM) and 6.25 µg/mL (≈ 15.6 µM), respectively.
On the same counts, the results for `O=C1C(=O)N(c2cnccn2)CCN1Cc1ccc(Nc2ncccn2)cc1` [Compound 8] are 0.78 µg/mL (≈ 2.08 µM) and 0.39 µg/mL (≈ 1.04 µM).
In the case of `O=C1C(=O)N(Cc2ccc(Nc3ccccn3)cc2)CCN1Cc1ccc(Nc2ccccn2)cc1` [Compound 24], the MIC against HeLa S3 cells and against Ehrlich cells was 3.13 µg/mL (≈ 6.54 µM) throughout.
Regarding `O=C1C(=O)N(Cc2ccc(Nc3ncccn3)cc2)CCN1Cc1ccc(Cl)cc1` [Compound 16], the MIC in the series on HeLa S3 cells and with Ehrlich cells was 1.56 µg/mL (≈ 3.7 µM) throughout.
As for `CCCCCCN1CCN(Cc2ccc(NC(C)C)cc2)C(=O)C1=O` [Compound 33], the MIC in the series with HeLa S3 cells and in the series with Ehrlich cells was 0.78 µg/mL (≈ 2.26 µM) throughout.
Turning to `CCN(CC)c1ccc(CN2CCN(Cc3cccnc3)C(=O)C2=O)cc1` [Compound 39], the minimal inhibitory concentration (MIC) against HeLa S3 cells and against Ehrlich cells was 25 µg/mL (≈ 68.2 µM) throughout. In series [1], the response vs control in vivo at 100 mg/kg was greater than 164%.
On to `CCCCCCN1CCN(Cc2ccc(NCc3ccncc3)cc2)C(=O)C1=O` [Compound 35], for which the MIC against HeLa S3 cells and against Ehrlich cells was 6.25 µg/mL (≈ 15.8 µM) throughout. In series [1] (50 mg/kg), the response vs control in vivo at 50 mg/kg was 146%. Besides, the response vs control in vivo at 100 mg/kg in series [1] was greater than 187%.
`Nc1cccc(CN2CCN(Cc3ccc(Nc4ncccn4)cc3)C(=O)C2=O)n1` [Compound 10]: the MIC in the series on HeLa S3 cells was 1.56 to 3.13 µg/mL (≈ 3.87 to 7.76 µM); against Ehrlich cells it was 12.5 µg/mL (≈ 31 µM).
As to `O=C1C(=O)N(Cc2ccc(Nc3ccncn3)cc2)CCN1Cc1ccccc1` [Compound 20], the MIC with HeLa S3 cells was found to be 0.78 µg/mL (≈ 2.01 µM); with Ehrlich cells it was 1.56 µg/mL (≈ 4.03 µM). The molecule also returned an LD50 at 168 h in “Acute toxicity” greater than 500 mg/kg.
`O=C1C(=O)N(Cc2ccc(Nc3ncccn3)cc2)CCN1CCCc1ccccc1` [Compound 15]: the MIC against HeLa S3 cells and against Ehrlich cells was 1.56 µg/mL (≈ 3.75 µM) in each case. This molecule came in with an LD50 at 168 h in “Acute toxicity” greater than 500 mg/kg.
On to `O=C1C(=O)N(Cc2ccc(Nc3ncccn3)cc2)CCN1Cc1ccc(Nc2ncccn2)cc1` [Compound 23], for which the MIC with HeLa S3 cells and against Ehrlich cells was 6.25 µg/mL (≈ 13 µM) throughout. Moreover, the response vs control in vivo at 100 mg/kg in series [1] came out at 159%.
With `CC=CC=CCN1CCN(Cc2ccc(N(CC)CC)cc2)C(=O)C1=O` [Compound 27], the MIC in the series on HeLa S3 cells and with Ehrlich cells was 6.25 µg/mL (≈ 17.6 µM) in each case.
Consider `O=C1C(=O)N(Cc2ccc(Nc3ccc([N+](=O)[O-])cn3)cc2)CCN1Cc1ccccc1` [Compound 3], for which the MIC was 3.13 to 6.25 µg/mL (≈ 7.25 to 14.5 µM) with HeLa S3 cells and 6.25 µg/mL (≈ 14.5 µM) with Ehrlich cells.
Regarding `CCN(CC)c1ccc(CN2CCN(Cc3cnc(Cl)nc3Cl)C(=O)C2=O)cc1` [Compound 36], it took 12.5 µg/mL (≈ 28.6 µM) to inhibit growth in the series with HeLa S3 cells (MIC). In series [1], the response vs control in vivo at 40 mg/kg is greater than 190% and the response vs control in vivo at 100 mg/kg was determined as 204%. This molecule gave an MIC in the series on Ehrlich cells of 12.5 µg/mL (≈ 28.6 µM).
For `CCCCCCN1CCN(Cc2ccc(Nc3cnccn3)cc2)C(=O)C1=O` [Compound 21], the MIC against HeLa S3 cells and in the series on Ehrlich cells was 1.56 µg/mL (≈ 4.09 µM) in each case.
As to `CCCCCCN1CCN(Cc2ccc(N(CC)CC)cc2Cl)C(=O)C1=O` [Compound 30], the MIC with HeLa S3 cells and against Ehrlich cells was 3.13 µg/mL (≈ 7.94 µM) in each case. Besides, the response vs control in vivo at 100 mg/kg in series [1] came out at 152%.
For the molecule `CCCCCCN1CCN(Cc2ccc(N(CC)CC)c(C)c2)C(=O)C1=O` [Compound 29], the MIC against HeLa S3 cells and in the series on Ehrlich cells was 12.5 µg/mL (≈ 33.5 µM) each time. Besides, the response vs control in vivo at 100 mg/kg in series [1] was found to be 184%.
